These results are taken from patent publication US11766419B2, “Mebeverine as soluble epoxide hydrolase inhibitor” (Banasthali Vidyapith, priority 2021, dated 2023).

SMILES strings stand for the structures.

This assay has as its target T1, sEH (Homo sapiens, UniProt P34913).
T1 sequence (P34913 1-555): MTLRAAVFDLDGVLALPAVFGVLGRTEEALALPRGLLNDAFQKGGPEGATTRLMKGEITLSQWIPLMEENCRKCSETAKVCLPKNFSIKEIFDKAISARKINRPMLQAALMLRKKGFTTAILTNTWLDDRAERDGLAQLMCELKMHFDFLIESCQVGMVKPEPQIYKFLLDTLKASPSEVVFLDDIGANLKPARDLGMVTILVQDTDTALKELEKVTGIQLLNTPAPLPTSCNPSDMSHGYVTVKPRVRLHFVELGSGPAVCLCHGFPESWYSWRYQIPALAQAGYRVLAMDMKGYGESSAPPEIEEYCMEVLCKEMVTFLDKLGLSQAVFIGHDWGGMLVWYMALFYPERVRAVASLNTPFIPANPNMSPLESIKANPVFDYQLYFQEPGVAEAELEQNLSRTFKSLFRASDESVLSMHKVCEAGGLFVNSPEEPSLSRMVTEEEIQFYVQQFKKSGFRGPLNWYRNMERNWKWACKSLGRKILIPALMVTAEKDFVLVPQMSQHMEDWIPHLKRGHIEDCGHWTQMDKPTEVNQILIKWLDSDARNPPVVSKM
Put plainly: In vitro sEH activity assay (PHOME substrate, fluorescence). Type of assay: biochemical. As for the experimental part:
Hydrolysis of PHOME by sEH results in the release of cyanohydrins that further decomposes to cyanide ion and 6-methoxy-2-naphthaldehyde (highly fluorescent). The fluorescence was analyzed at an excitation and emission wavelength of 330 nm and 465 nm respectively.

Regarding `C[C@H](CS)C(=O)N1CCC[C@H]1C(=O)O` [Captopril, captopril], the sEH activity (remaining enzyme activity) was 100%. For the same molecule, where the note is “sEH, PHOME substrate”, the concentration for half-maximal inhibition (IC50) came out at 0.693 µM.
